Series [1] relates to HaCaT cells.
Description: HaCaT cells were grown as described.
Cytotoxicity was assessed by measurements of the content of intracellular lactate dehydrogenase (LDH) activity released into the culture medium during 48 h after onset of drug exposure. Possible drug induced detachment of the HaCaT cells from the plate was assessed by collection of the medium from the wells and centrifugation (80 x g, 10 min.) The resulting pellet was suspended in 10 µl medium and cells were counted in a haemocytometer.
In series [2] the test system is PKC. Particulars: in-vitro tests; Hegemann et al. (1989); cited from earlier work.
Series [3] has as its system rat brain synaptosomes. The series is described as follows: Noradrenaline release from permeated synaptosomes. Particulars: 100 µM to 1 µM; low (10 nM) and high (10 µM) Ca²⁺. The series is classed as cell-based. The method, then: Highly purified synaptosomes were prepared according to Dunkley and Robinson (1987). The synaptosomes were diluted with 3 ml buffer A (123 mM NaCl, 5 mM KCl, 2 mM CaCl₂, […], 1.15 mM NaH₂PO₄, 5.6 mM glucose, 20 mM PIPES pH 6.8, gassed with O₂:CO₂, 95:5) and incubated for 15 min at 37°C. Then 2.5 µCi noradrenalin (NA) was added, incubation was continued for 15 min and the synaptosomes were centrifuged for 20 min at 600 x g. The resulting pellet was washed twice in buffer A without CaCl₂ and resuspended (1 mg protein/ml).
For measurement of NA release, prelabeled synaptosomes were incubated at 37°C in buffer A containing Na₂ATP and EGTA-buffered Ca²⁺ in concentrations as indicated (final volume 120 µl). The release reaction was started by adding synaptosomes (20 µg protein) to the reaction mixture and terminated after 5 min by 30 sec centrifugation at 10,000 x g. The supernatant (90 µl) was collected and counted in a Packard Model 2,000 CA liquid scintillation counter with Picofluor as a scintillation cocktail. NA release was expressed as % of total [³H]-NA incorporated. Total NA incorporation was determined by measuring [³H]-incorporation in 20 µg prelabeled washed synaptosomes.

Series [4] concerns PKC from the central nervous system. The series is described as follows: Phosphorylation of synaptosomal plasma membranes: B-50 phosphorylation. The series is classed as biochemical. Conditions: for phosphorylation of B-50 (% of control): without addition of CaM. How it is done: Subcellular fractionation and phosphorylation assay were performed according to Kristjansson et al., (1982). […] After a preincubation at 30°C for 5 min, the phosphorylation reaction was started by adding the ATP. The reaction was stopped after 15 sec. All compounds to be tested were present at the start of the preincubation. […]

For series [5], the system named is human polymorphonuclear leukocytes (PMNL). Kind of series: ROS generation from PMNL, lucigenin-amplified chemiluminescence. Particulars: for IC50: Homo sapiens, PMNL. The series is classed as cell-based. How it is done:
Human PMNL were isolated from fresh blood (anticoagulated with sodium citrate) by erythrocyte sedimentation with 1% dextran (Pharmacia, Uppsala, Sweden) centrifugation of the resulting supernatant, followed by hypoosmotic lysis to remove red blood cells. Washed cells were adjusted to 2 x 10⁶ cells/ml in PBS containing fetal calf serum (2%; v/v). Test compounds dissolved in DMSO were diluted with the assay buffer to a final DMSO concentration of 0.5% (v/v).
Then the test compounds (100 µl) were added with subsequent recording for another 16 min period. […] Results were expressed as percent of inhibition or stimulation of the controls (mean of two integrals) in a single experiment.

In series [6] the test system is TPA-induced edema and hyperproliferation in mouse skin. The series is described as follows: Topical application, TPA-induced edema and hyperproliferation in mouse skin. The series is classed as in vivo, Hairless mice (hr/hr; male). Conditions: with 0.01 wt% TPA. The method, then: Hairless mice (hr/hr; male) were treated on their backs with 10 µl of a 0.01 wt% solution of 12-O-tetradecanoylphorbol-13-acetate (TPA) in a 80/20 mixture of acetone/water, further containing the test substances cyclosporin A, sphingosine or tiflucarbine. Per mouse, 4 application sites were used: one application site was treated with only TPA (control) and one with only vehicle (blanco), two with experimental formulations, according to a roulation scheme. 6 mice were treated per experiment. Skin fold thickness was determined before treatment (t=0) and 6 and 24 h after treatment, as a measure of edema. After 72 h the epidermis (15 mm punch biopsy) was separated with 2 M KBr and dissolved in 0.1 M NaOH for determination of the amount of protein, as a measure of hyperproliferation. In one experiment tiflucarbine was compared with cyclosporin A, in a second experiment with sphingosine.

Read-outs that look alike come from different tables or passages of the source.

Turning to `CCN1CCc2[nH]c3cc(F)c4scc(C)c4c3c2C1` [Tiflucarbine, 1-methyl-9-ethyl-4-fluoro-7,8,9,10-tetra:hydro-thieno-[3,2-e]-pyrido-[4,3-b]-indole lactate], in series [1], the toxic concentration result is recorded as “above 300 µM”. The PKC activity entry in series [2] was “significantly inhibit PKC activity”. Moreover, the noradrenaline release result in series [3] is listed as “did not display any significant effects”. For the same molecule, the B-50 phosphorylation result in series [4] (in the presence of exogenous CaM (3 units/assay)) is on record as “did not inhibit B-50 phosphorylation”. In addition, the “phosphorylation of B-50 (% of control)” value is given as 82 ± 14 % of control in series [4] (concentration 1 µM), 110 ± 15 % of control in series [4] (concentration 10 µM), 92 ± 9 % of control in series [4] (concentration 100 µM) and 95 ± 11 % of control in series [4] (concentration l mM). The IC50 is 14 µM in series [5] (16 min, compound added at peak, 16 min after opsonized zymosan, IC₅₀-values, read-out: Peak CL); 7.2 µM in series [5] (30 min preincubation, unstimulated, IC₅₀-values, read-out: Spontaneous CL); 7.4 µM in series [5] (stimulation with opsonized zymosan after preincubation, IC₅₀-values, read-out: Induced CL); 7 µM in series [5] (unstimulated cells and cells stimulated with opsonized zymosan or PMA, read-out: IC₅₀ values, inhibition of ROS generation). Besides, the “inhibition of peak chemiluminescence to 50%, fold higher concentrations” value in series [5] (both stimuli (opsonized zymosan, PMA), relative to the IC₅₀ of 7 µM) was 2-3 fold. The “induction of the release of reactive oxygen species” value in series [5] (human PMNL, unstimulated) was “does not induce the release”. Further, the “edema (skin fold thickness)” value in series [6] (6 and 24 h after treatment) is “reduces edema at 0.5, 1 and 2.5%”. Also, in series [6] (after 72 h), the “hyperproliferation (amount of epidermal protein)” value is “reduces hyperproliferation only at 1 and 2.5%”.
